Test results as given in patent US11571480B2, “Multi-ligand drug conjugates and uses thereof” (priority 2015, dated 2023).

How the values were obtained:
[1] = test system: human lung cancer cell H460; assay: Cytotoxicity test of conjugate LDC1013; type: cell-based; conditions: H460, incubated 15-30 min, then 2-3 days
Experimental: (§1) Culture medium: RPMI 1640 Medium, no folic acid
(§2) 1) human nasopharyngeal cancer cell line KB, melanoma cell line A375, and human lung cancer cell H460 were incubated at 37° C., 5% CO2 in RPMI 1640 medium containing 10% fetal bovine serum, the cells were passaged every 2-3 days.
(§3) 2) human nasopharyngeal cancer cell line KB, melanoma cell line A375, and human lung cancer cell H460 were plated at 1×10^3 cells per well (96-well plate) and incubated for 8-12 h at 37° C., 5% CO2.
(§4) 3) Stock solutions of LDC conjugates or control were prepared in PBS solution. 100 μL/well of serially diluted LDC conjugates or control was added to the cells in the plate and incubated for 15-30 min at 37° C., 5% CO2. The culture medium in the wells was then removed by aspiration and the cells were incubated in fresh culture medium without conjugates (150 μL/well) for 2-3 days at 37° C., 5% CO2.
(§5) 4) CellTiter 96® Aqueous One Solution Cell Proliferation Assay (Promega) was added to each well to measure the amount of […] cells, and the plate was incubated in an incubator for 1 h at 37° C., 5% CO2.
(§6) 5) the plate was read at 490 nm on a microplate reader, and the cell survivals were compared for cells with or without the treatment of LDC conjugates. The LDC drug concentrations that are required for 50% cell death (IC50 values) were determined.

[2] = test system: human nasopharyngeal cancer cell line KB; assay: Cytotoxicity test of conjugate LDC1013; type: cell-based; conditions: incubated 15-30 min, then 2-3 days
Experimental: as §1, §2, §3, §4, §5, §6

[3] = test system: melanoma cell line A375; assay: Cytotoxicity test of conjugate LDC1013; type: cell-based; conditions: A375, incubated 15-30 min, then 2-3 days
Experimental: as §1, §2, §3, §4, §5, §6

[4] = test system: human embryonic kidney cell 293A; assay: Cytotoxicity test of conjugate LDC11B; type: cell-based; conditions: incubated 15-30 min, then 2-3 days
Experimental: as §1
(§7) 1) human lung cancer cell H460, ovarian cancer cell SKOV3, human embryonic kidney cell 293A were incubated at 37° C., 5% CO2 in RPMI 1640 medium containing 10% fetal bovine serum, the cells were passaged every 2-3 days.
(§8) 2) human lung cancer cell H460, ovarian cancer cell SKOV3, human embryonic kidney cell 293A were plated at 1×10^3 cells per well (96-well plate) and incubated for 8-12 h at 37° C., 5% CO2.
as §4, §5
(§9) 5) The plate was read at 490 nm on a microplate reader, and the cell survivals were compared for cells with or without the treatment of LDC conjugates. The LDC drug concentrations that are required for 50% cell death (IC50 values) were determined.

[5] = test system: human lung cancer cell H460; assay: Cytotoxicity test of conjugate LDC11B; type: cell-based; conditions: H460, incubated 15-30 min, then 2-3 days
Experimental: as §1, §7, §8, §4, §5, §9

[6] = test system: ovarian cancer cell SKOV3; assay: Cytotoxicity test of conjugate LDC11B; type: cell-based, human; conditions: SKOV3, incubated 15-30 min, then 2-3 days
Experimental: as §1, §7, §8, §4, §5, §9

[7] = test system: human gastric cancer cell N87; assay: Cytotoxicity test of conjugate LDC10B; type: cell-based; conditions: N87, Incubation Time 30 min
Experimental: as §1
(§10) 1) human nasopharyngeal cancer cell line KB, melanoma cell line A375, human lung cancer cell H1299, chronic myeloid leukemia cell line K562, human lung cancer cell H460, ovarian cancer cell SKOV3, breast cancer cell line HCC1954, human gastric cancer cell N87, and human breast cancer cell SK-BR-3 were incubated at 37° C., 5% CO2 in RPMI 1640 medium containing 10% fetal bovine serum, the cells were passaged every 2-3 days.
(§11) 2) human nasopharyngeal cancer cell line KB, melanoma cell line A375, human lung cancer cell H1299, chronic myeloid leukemia cell line K562, human lung cancer cell H460, ovarian cancer cell SKOV3, breast cancer cell line HCC1954, human gastric cancer cell N87, and human breast cancer cell SK-BR-3 were plated at 1×10^3 cells per well (96-well plate) and incubated for 8-12 h at 37° C., 5% CO2.
(§12) 3) Stock solutions of LDC conjugates or controls were prepared in PBS solution. 100 μL/well of serially diluted LDC conjugates or controls was added to the test cells in the plates and incubated for 15-30 min at 37° C., 5% CO2. The culture medium in the wells was then removed by aspiration and the test cells were incubated in fresh culture medium without conjugates (150 μL/well) for 2-3 days at 37° C., 5% CO2.
(§13) 4) CellTiter 96® Aqueous One Solution Cell Proliferation Assay (Promega) was added to each well to measure the amount of […] cells, and each plate was incubated in an incubator for 1 h at 37° C., 5% CO2.
(§14) 5) Each plate was read at 490 nm on a microplate reader, and the cell survivals were compared for test cells with or without the treatment of LDC conjugates. The LDC drug concentrations that are required for 50% cell death (IC50 values) were determined.

[8] = test system: human lung cancer cell H460; assay: Cytotoxicity test of conjugate LDC10B; type: cell-based; conditions: H460, Incubation Time 30 min
Experimental: as §1, §10, §11, §12, §13, §14

[9] = test system: human lung cancer cell H1299; assay: Cytotoxicity test of conjugate LDC10B; type: cell-based; conditions: H1299, Incubation Time 30 min
Experimental: as §1, §10, §11, §12, §13, §14

[10] = test system: human nasopharyngeal cancer cell line KB; assay: Cytotoxicity test of conjugate LDC10B; type: cell-based; conditions: Incubation Time 15 min
Experimental: as §1, §10, §11, §12, §13, §14

[11] = test system: chronic myeloid leukemia cell line K562; assay: Cytotoxicity test of conjugate LDC10B; type: cell-based; conditions: K562, Incubation Time 30 min
Experimental: as §1, §10, §11, §12, §13, §14

[12] = test system: human breast cancer cell SK-BR-3; assay: Cytotoxicity test of conjugate LDC10B; type: cell-based; conditions: SK-BR-3, Incubation Time 30 min
Experimental: as §1, §10, §11, §12, §13, §14

[13] = test system: melanoma cell line A375; assay: Cytotoxicity test of conjugate LDC10B; type: cell-based; conditions: A375, Incubation Time 15 min
Experimental: as §1, §10, §11, §12, §13, §14

[14] = test system: ovarian cancer cell SKOV3; assay: Cytotoxicity test of conjugate LDC10H; type: cell-based, human; conditions: SKOV3, incubated 15-30 min, then 2-3 days
Experimental: as §1
(§15) 1) human lung cancer cell H1299, ovarian cancer cell SKOV3, breast cancer cell line HCC1954, and human lung cancer cell H460 were incubated at 37° C., 5% CO2 in RPMI 1640 medium containing 10% fetal bovine serum, the cells were passaged every 2-3 days.
(§16) 2) human lung cancer cell H1299, ovarian cancer cell SKOV3, breast cancer cell line HCC1954, and human lung cancer cell H460 were plated at 1×10^3 cells per well (96-well plate) and incubated for 8-12 h at 37° C., 5% CO2.
as §4, §5, §6

[15] = test system: breast cancer cell line HCC1954; assay: Cytotoxicity test of conjugate LDC10H; type: cell-based, human; conditions: HCC1954, incubated 15-30 min, then 2-3 days
Experimental: as §1, §15, §16, §4, §5, §6

[16] = test system: ovarian cancer cell SKOV3; assay: Cytotoxicity test of conjugate LDC10B; type: cell-based, human; conditions: SKOV3, Incubation Time 30 min
Experimental: as §1, §10, §11, §12, §13, §14

[17] = test system: breast cancer cell line HCC1954; assay: Cytotoxicity test of conjugate LDC10B; type: cell-based, human; conditions: HCC1954, Incubation Time 30 min
Experimental: as §1, §10, §11, §12, §13, §14

[18] = test system: human lung cancer cell H460; assay: Cytotoxicity test of conjugate LDC10H; type: cell-based; conditions: H460, incubated 15-30 min, then 2-3 days
Experimental: as §1, §15, §16, §4, §5, §6

[19] = test system: human lung cancer cell H1299; assay: Cytotoxicity test of conjugate LDC10H; type: cell-based; conditions: H1299, incubated 15-30 min, then 2-3 days
Experimental: as §1, §15, §16, §4, §5, §6

[20] = test system: human nasopharyngeal cancer cell line KB; assay: Cytotoxicity test of conjugate LDC13B; type: cell-based; conditions: KB, incubated 15-30 min, then 2-3 days
Experimental: as §1
1) human nasopharyngeal cancer cell line KB, human colon carcinoma HCT-116, human prostatic cancer cell PC-3, human gastric cancer cell line GTL-16, human endometrial cancer cell HEC-1A, and human gastric cancer cell N87 were incubated at 37° C., 5% CO2 in RPMI 1640 medium containing 10% fetal bovine serum, the cells were passaged every 2-3 days.
2) human nasopharyngeal cancer cell line KB, human colon carcinoma HCT-116, human prostatic cancer cell PC-3, human gastric cancer cell line GTL-16, human endometrial cancer cell HEC-1A, and human gastric cancer cell N87 were plated at 1×10^3 cells per well (96-well plate) and incubated for 8-12 h at 37° C., 5% CO2.
as §4, §5, §6

“Folate-(PEG)3-MC-Val-Cit-PAB-MMAE [LDC1]” gave an IC50 [1] of 9400 nM, an IC50 [2] of 4000 nM and an IC50 [3] of 37000 nM. It also gave an IC50 [4] of 715 nM, an IC50 [5] of 526 nM and an IC50 [6] of 295 nM. It also gave an IC50 [7] of 239 nM, an IC50 [8] of 192 nM and an IC50 [9] of 262 nM. It also gave an IC50 [10] of 15000 nM, an IC50 [11] of 93.1 nM and an IC50 [12] of 98.2 nM. It also gave an IC50 [13] of 10000 nM, an IC50 [14] of 201 nM and an IC50 [15] of 77.9 nM. The IC50 [16] was 102 nM, the IC50 [17] was 94.4 nM and the IC50 [18] was 137 nM. It also gave an IC50 [19] of 186 nM and an IC50 [20] of 65 nM.
